In US8044098B2, “Use of hydroxybenzoic acids and their esters and analogues for preventing or treating virus infection” (Shenghua Guangzhou Pharmaceutical Science & Technology Co., …, priority 2005, dated 2011):

Legend:
[1] = system: HPV 6/11; experiment: Drug screening by quantitative fluorescent PCR analysis of HPV 6/11 in condyloma acuminata homogenate; set-up: species or system human papillomavirus (HPV); conditions: for HPV 6/11 Virus (copies/ml): 50 μl 10% micro emulsion + 50 μl HPV sample homogenate, 37° C., 24 hours, saline control 1.45 × 10^6; for HPV 6/11 detected by FQ-PCR (in words): 24 hours after adding the test compound
[2] = system: HPV 16/18; experiment: Drug screening by quantitative fluorescent PCR analysis of HPV 16/18 in condyloma acuminata homogenate; set-up: species or system human papillomavirus (HPV); conditions: for HPV 16/18 Virus (copies/ml): 50 μl 10% micro emulsion + 50 μl HPV sample homogenate, 37° C., 24 hours, saline control 1.40 × 10^5; for HPV 16/18 detected by FQ-PCR (in words): 24 hours after adding the test compound
[3] = system: condyloma acuminata; experiment: Clinical use in treating condyloma acuminata; type: in vivo, human
Excerpt: Soft hyperplasia with nipple or cauliflower shaped or other shaped warts were found around the skin of the cunnus or anus. The result from 5% acetate acid white test was positive.
Patients selected for the clinical observation must meet the above standards. Plus the diameter of their skin lesions should equal to or be less than 1 cm. […] Patients who had vaginal yeast, trichomonas, bacteria infection or other complications, chronic diseases, serious liver or kidney diseases or women in pregnancy or lactation were not selected. Treatments to women would not be conducted in their menstrual periods.
50 qualified patients were selected and randomly divided into five groups to be tested with p-hydroxybenzoic acid, gallic acid, ethyl p-hydroxybenzoate, propyl gallate and recombinant human interferon α-2β gel, respectively. The samples of p-hydroxybenzoic acid, gallic acid, ethyl p-hydroxybenzoate and propyl gallate were prepared as described in Example 1. The patients were treated with the test sample to the affected areas three times a day, in the morning, at noon and night. The samples were applied to cover the warts and the patients were required to leave the treated areas exposed and not to move for 20 minutes.
Observation time: 8 days. Patients not cured after 8 days would continue to use the test samples for another 12 weeks, and their prognosis was followed during the 12-week period.
Observed items: the location, shape, size and number of warts were carefully observed and recorded before the treatment.
“Recovered”: all skin lesions had disappeared;
“Obvious Effect”: more than 70% of the skin lesions had disappeared;
“Improved”: more than 30% of the skin lesions had disappeared;
“Not Effective”: less than 30% of the skin lesions had disappeared or the original skin lesions didn't change or even enlarged.

[4] = system: secretion of HBsAg by 2.2.15 cells; experiment: Inhibition of secretion of HBsAg by Hepatitis B 2.2.15 cell line; type: cell-based, HBV; conditions: 1 μmol/ml
Excerpt: (§1) Hepatitis B 2.2.15 cell line was transfected by HBV DNA (purchased from Institute of Biochemistry and Cell Biology of Shanghai Institute for Biological Sciences or the National Center for Drug Screening) and used as the cell model for screening anti-HBV drug compounds (See Chinese Journal Of Integrated Traditional and Western Medicine on Liver Diseases, 2004, 14(3): 158). The cell culture medium DMEM (GIBCO Company), bovine serum (Hangzhou Siji Qing Biochemical Manufacturer), G418 (GIBCO Company), 3-(4,5-dimethylthiazol-2-yl)-2,5-diphenyltetrazoliumbromide (Sigma), HBsAg and HBeAg diagnostic kit (Shanghai Kehua Bio-engineering Co., Ltd).
(§2) The test compounds listed in Table 3 below were dissolved in a mixture containing 20 ml 1,2-propylene glycol and 15 ml Tween-80 and diluted with sterile saline water to 2 μmol/ml of the test compound. Then it was mixed with the cell culture medium at equal volume to obtain a solution containing 1 μmol/ml of the tested compound. Cells at the concentration of 1×10^5 cells per milliliter were inoculated to a 24-well plate at 1 ml/well. Supernatant from the cell culture mixture was collected three days later for testing.

[5] = system: secretion of HBeAg by 2.2.15 cells; experiment: Inhibition of secretion of HBeAg by Hepatitis B 2.2.15 cell line; type: cell-based, HBV; conditions: 1 μmol/ml
Excerpt: as §1, §2

[6] = system: HSV infection; experiment: External treatment of HSV infection in clinical tests; type: in vivo, human; conditions: patients with HSV infection, applied on affected areas three times a day
Excerpt: Twenty-two patients who were clinically diagnosed with HSV infection were randomly selected and divided into two groups. Acyclovir ointment and micro emulsion containing propyl gallate prepared as described in Example 1 were applied to the two groups, respectively, on the affected areas of the patients three times a day.

[7] = type: physicochemical
Protocol: 20 ml 1,2-propylene glycol, 15 ml Tween-80 and 5 ml azone were mixed together and sterile distilled water was added to bring the volume to 100 ml. The pH value of the solution was adjusted to pH 6.8 with NaOH or HCl to obtain a micro emulsion. 10 g propyl gallate and 10 g gallic acid were dissolved in the micro emulsion, respectively, and mixed well. 10 ml of each micro emulsion was added to a capped transparent glass tube. Both solutions were colorless. The absorbance of the two solutions at 400˜500 nm was measured with spectrophotometry and their absorbance was under 0.15. […] Measured by spectrophotometry again, the absorbance of the gallic acid solution was 1.2 and that of the propyl gallate solution was 0.4.

[8] = number of patients, more than 70% of the skin lesions disappeared
[9] = 2.2.15 cells, supernatant collected three days later

Row | Structure (SMILES) | HPV 6/11 Virus (copies/ml) [1] | HPV 16/18 Virus (copies/ml) [2] | HPV 6/11 detected by FQ-PCR (in words) [1] | HPV 16/18 detected by FQ-PCR (in words) [2] | other results
1 | O=C(O)c1ccccc1O [Salicylic acid, salicylic acid, reference compound] | 5.50 × 10^5 copies/ml | 2.60 × 10^4 copies/ml | – | – | –
2 | O=C(O)c1cc(Cl)c(O)c(Cl)c1 [3,5-dicloro-4-hydroxybenzoic acid] | 2.30 × 10^3 copies/ml | 2.60 × 10^4 copies/ml | – | – | –
3 | O=C(O)c1cc(O)c(O)c(O)c1 [Gallic acid] | 0 copies/ml | 0 copies/ml | no HPV 6/11 or HPV 16/18 was detected | no HPV 6/11 or HPV 16/18 was detected | treatment effect compared to recombinant human interferon α-2β gel ([3]; condyloma acuminata patients, 10% micro emulsion): more apparent treatment effect; Recovered, 1-4 days ([3]; number of patients (50 patients in five groups), 10% micro emulsion on affected areas three times a day, all skin lesions disappeared): 2; Improved ([3]; number of patients, more than 30% of the skin lesions disappeared, observation 8 days): 4; Obvious Effect, 1-4 days [3, 8]: 3; Obvious Effect, 5-8 days [3, 8]: 1; effect on the secretion of HBsAg by the 2.2.15 cells (in words) [4]: had inhibition effect; HBsAg Inhibition rate [4, 9]: 8.83%; effect on the secretion of HBeAg by the 2.2.15 cells (in words) [5]: had inhibition effect; HBeAg Inhibition Rate [5, 9]: 9.40%; average time for recovery [6]: 3 days; colour of solution, initial ([7]; micro emulsion pH 6.8, freshly prepared): colorless; absorbance after 30 days ([7]; micro emulsion pH 6.8, kept at room temperature for 30 days, 400˜500 nm): 1.2; colour of solution after 30 days ([7]; micro emulsion pH 6.8, room temperature for 30 days): light brown
4 | CCCCCCCCOC(=O)c1cccc(O)c1O [Octyl 2,3-dihydroxybenzoate] | 2.20 × 10^2 copies/ml | 1.50 × 10^2 copies/ml | – | – | –
5 | COC(=O)c1cccc(O)c1O [Methyl 2,3-dihydroxybenzoate] | 3.00 × 10^4 copies/ml | 4.20 × 10^2 copies/ml | – | – | –
6 | O=C(O)c1ccccc1 [Benzoic acid, benzoic acid] | 3.60 × 10^5 copies/ml | 2.90 × 10^4 copies/ml | – | – | –
7 | O=C(O)c1ccc(O)c(Br)c1 [3-bromo-4-hydroxybenzoic acid] | 3.40 × 10^3 copies/ml | 5.00 × 10^4 copies/ml | – | – | –
8 | CCCCCCCCCCCCOC(=O)c1cc(O)c(O)c(O)c1 [dodecyl gallate, Dodecyl gallate] | 6.70 × 10^4 copies/ml | 4.90 × 10^4 copies/ml | – | – | –
9 | COC(=O)c1ccc(O)c(O)c1O [Methyl 2,3,4-trihydroxybenzoate] | 0 copies/ml | 0 copies/ml | no HPV 6/11 or HPV 16/18 was detected | no HPV 6/11 or HPV 16/18 was detected | –
10 | O=C(O)c1ccc(O)c(O)c1O [2,3,4-trihydroxybenzoic acid] | 0 copies/ml | 0 copies/ml | no HPV 6/11 or HPV 16/18 was detected | no HPV 6/11 or HPV 16/18 was detected | –
11 | COC(=O)c1cc(O)c(O)c(O)c1 [Methyl gallate] | 0 copies/ml | 0 copies/ml | no HPV 6/11 or HPV 16/18 was detected | no HPV 6/11 or HPV 16/18 was detected | –
